Measurements: patent US10626112B2, “Heterocyclic sulfonamide derivative and medicine comprising same” (EA PHARMA CO., LTD., priority 2014, dated 2020)

Target: human TRPA1 (Homo sapiens (Human), UniProt O75762)
Experiment: Measurement of TRPA1 antagonist activity (1): intracellular calcium increase
Assay type: cell-based
Details: 293T cells transfected with human TRPA1 expression plasmid; allylisothiocyanate 20 μM stimulation; intracellular calcium fluorescence; read-out: hTRPA1 IC50
How it was run: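 HEK293T cells transiently transfected with full-length human TRPA1, loaded with Calcium4 dye in HBSS/20 mM HEPES pH 7.2. Test compound preincubated 10 min, then allylisothiocyanate added at 20 μM final and fluorescence change followed for 5 min. IC50 from sigmoid fit of percent inhibition relative to agonist and buffer controls.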

human TRPA1, sequence (O75762 whole entry): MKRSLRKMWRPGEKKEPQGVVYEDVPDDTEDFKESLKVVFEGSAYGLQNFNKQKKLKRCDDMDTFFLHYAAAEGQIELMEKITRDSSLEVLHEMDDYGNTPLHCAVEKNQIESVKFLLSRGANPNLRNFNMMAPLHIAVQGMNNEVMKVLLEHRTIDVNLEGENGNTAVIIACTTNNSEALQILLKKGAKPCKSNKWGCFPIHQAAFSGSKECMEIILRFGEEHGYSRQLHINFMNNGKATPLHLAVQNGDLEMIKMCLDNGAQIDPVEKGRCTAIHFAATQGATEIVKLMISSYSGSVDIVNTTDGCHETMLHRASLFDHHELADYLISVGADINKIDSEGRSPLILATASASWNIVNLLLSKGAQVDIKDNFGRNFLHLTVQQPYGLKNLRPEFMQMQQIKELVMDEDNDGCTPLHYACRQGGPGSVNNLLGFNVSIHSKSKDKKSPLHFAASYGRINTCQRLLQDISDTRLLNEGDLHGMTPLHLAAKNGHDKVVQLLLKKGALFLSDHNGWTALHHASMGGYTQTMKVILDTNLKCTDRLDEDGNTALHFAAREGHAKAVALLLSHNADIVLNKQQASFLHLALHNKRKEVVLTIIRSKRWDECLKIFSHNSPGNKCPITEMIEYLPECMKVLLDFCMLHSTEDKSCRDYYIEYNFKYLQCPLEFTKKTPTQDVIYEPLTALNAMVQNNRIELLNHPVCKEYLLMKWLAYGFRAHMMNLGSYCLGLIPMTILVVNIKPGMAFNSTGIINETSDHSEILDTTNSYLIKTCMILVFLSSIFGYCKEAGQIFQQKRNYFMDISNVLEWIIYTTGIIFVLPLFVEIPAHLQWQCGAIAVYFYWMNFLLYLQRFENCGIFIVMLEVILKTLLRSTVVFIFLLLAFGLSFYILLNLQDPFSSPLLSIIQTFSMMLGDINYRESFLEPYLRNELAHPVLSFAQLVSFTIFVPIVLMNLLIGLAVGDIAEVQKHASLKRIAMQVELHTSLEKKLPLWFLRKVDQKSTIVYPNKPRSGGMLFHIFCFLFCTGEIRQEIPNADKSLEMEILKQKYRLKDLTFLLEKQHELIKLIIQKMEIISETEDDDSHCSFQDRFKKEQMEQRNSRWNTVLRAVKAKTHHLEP

IC50 [nM] | Structure (SMILES)
120 | O=C(NCc1ccnc(-c2cccc(F)c2)c1)[C@@H]1CCCN1S(=O)(=O)c1cc2ccccc2o1 [Example 113, (2S)-1-(benzofuran-2-ylsulfonyl)-N-[[2-(3-fluorophenyl)-4-pyridyl]methyl]pyrrolidine-2-carboxamide]
32 | O=C(NCc1ccnc(-c2ccc(F)cc2)c1)[C@@H]1CCCN1S(=O)(=O)c1cc2ccccc2o1 [Example 114, (2S)-1-(benzofuran-2-ylsulfonyl)-N-[[2-(4-fluorophenyl)-4-pyridyl]methyl]pyrrolidine-2-carboxamide]
2.4 | O=C(NCc1ccnc(-c2ccc(C(F)(F)F)cc2)c1)[C@@H]1CCCN1S(=O)(=O)c1cc2ccccc2o1 [Example 115, (2S)-1-(benzofuran-2-ylsulfonyl)-N-[[2-[4-(trifluoromethyl)phenyl]-4-pyridyl]methyl]pyrrolidine-2-carboxamide]
2.9 | O=C(NCc1ccnc(-c2ccc(OC(F)(F)F)cc2)c1)[C@@H]1CCCN1S(=O)(=O)c1cc2ccccc2o1 [Example 116, (2S)-1-(benzofuran-2-ylsulfonyl)-N-[[2-[4-(trifluoromethoxy)phenyl]-4-pyridyl]methyl]pyrrolidine-2-carboxamide]
14 | N#Cc1ccc(-c2cc(CNC(=O)[C@@H]3CCCN3S(=O)(=O)c3cc4ccccc4o3)ccn2)cc1 [Example 117, (2S)-1-(benzofuran-2-ylsulfonyl)-N-[[2-(4-cyanophenyl)-4-pyridyl]methyl]pyrrolidine-2-carboxamide]
260 | N#Cc1cccc(-c2cc(CNC(=O)[C@@H]3CCCN3S(=O)(=O)c3cc4ccccc4o3)ccn2)c1 [Example 118, (2S)-1-(benzofuran-2-ylsulfonyl)-N-[[2-(3-cyanophenyl)-4-pyridyl]methyl]pyrrolidine-2-carboxamide]
12 | N#Cc1ccc(-c2cc(CNC(=O)[C@@H]3CCCN3S(=O)(=O)c3cc4ccccc4o3)ccn2)cc1F [Example 119, (2S)-1-(benzofuran-2-ylsulfonyl)-N-[[2-(4-cyano-3-fluoro-phenyl)-4-pyridyl]methyl]pyrrolidine-2-carboxamide]
180 | O=C(NCc1ccnc(-c2ccccc2O)c1)[C@@H]1CCCN1S(=O)(=O)c1cc2ccccc2o1 [Example 120, (2S)-1-(benzofuran-2-ylsulfonyl)-N-[[2-(2-hydroxyphenyl)-4-pyridyl]methyl]pyrrolidine-2-carboxamide]
32 | O=C(NCc1ccnc(-c2ccc(F)cc2O)c1)[C@@H]1CCCN1S(=O)(=O)c1cc2ccccc2o1 [Example 121, (2S)-1-(benzofuran-2-ylsulfonyl)-N-[[2-(4-fluoro-2-hydroxy-phenyl)-4-pyridyl]methyl]pyrrolidine-2-carboxamide]
170 | O=C(NCc1ccnc(-c2cc(F)c(F)cc2O)c1)[C@@H]1CCCN1S(=O)(=O)c1cc2ccccc2o1 [Example 122, (2S)-1-(benzofuran-2-ylsulfonyl)-N-[[2-(4,5-difluoro-2-hydroxy-phenyl)-4-pyridyl]methyl]pyrrolidine-2-carboxamide]
2.6 | O=C(NCc1ccnc(-c2ccc(C(F)(F)F)cc2O)c1)[C@@H]1CCCN1S(=O)(=O)c1cc2ccccc2o1 [Example 123, (2S)-1-(benzofuran-2-ylsulfonyl)-N-[[2-[2-hydroxy-4-(trifluoromethyl)phenyl]-4-pyridyl]methyl]pyrrolidine-2-carboxamide]
3.4 | O=C(NCc1ccnc(-c2ccc(C(F)(F)F)nc2)c1)[C@@H]1CCCN1S(=O)(=O)c1cc2ccccc2o1 [Example 124, (2S)-1-(benzofuran-2-ylsulfonyl)-N-[[2-[6-(trifluoromethyl)-3-pyridyl]-4-pyridyl]methyl]pyrrolidine-2-carboxamide]
240 | CN(C)c1ccc(-c2cc(CNC(=O)[C@@H]3CCCN3S(=O)(=O)c3cc4ccccc4o3)ccn2)cn1 [Example 125, (2S)-1-(benzofuran-2-ylsulfonyl)-N-[[2-[6-(dimethylamino)-3-pyridyl]-4-pyridyl]methyl]pyrrolidine-2-carboxamide]
78 | N#Cc1ccc(-c2cc(CNC(=O)[C@@H]3CCCN3S(=O)(=O)c3cc4ccccc4o3)ccn2)c(OCc2ccccc2)c1 [Example 126, (2S)-1-(benzofuran-2-ylsulfonyl)-N-[[2-(2-benzyloxy-4-cyano-phenyl)-4-pyridyl]methyl]pyrrolidine-2-carboxamide]
25 | Cn1nc(C(F)(F)F)cc1-c1cc(CNC(=O)[C@@H]2CCCN2S(=O)(=O)c2cc3ccccc3o2)ccn1 [Example 127, (2S)-1-(benzofuran-2-ylsulfonyl)-N-[[2-[2-methyl-5-(trifluoromethyl)pyrazol-3-yl]-4-pyridyl]methyl]pyrrolidine-2-carboxamide]
0.61 | O=C(NCc1ccnc(-c2ccc(C(F)(F)F)cc2)c1)[C@@H]1CCCN1S(=O)(=O)c1cc2cc(F)ccc2o1 [Example 128, (2S)-1-(5-fluorobenzofuran-2-yl)sulfonyl-N-[[2-[4-(trifluoromethyl)phenyl]-4-pyridyl]methyl]pyrrolidine-2-carboxamide]

IC50 [nM] | Structure (SMILES)
0.61 | O=C(NCc1ccnc(-c2ccc(OC(F)(F)F)cc2)c1)[C@@H]1CCCN1S(=O)(=O)c1cc2cc(F)ccc2o1 [Example 129, (2S)-1-(5-fluorobenzofuran-2-yl)sulfonyl-N-[[2-[4-(trifluoromethoxy)phenyl]-4-pyridyl]methyl]pyrrolidine-2-carboxamide]
2 | O=C(NCc1ccnc(-c2ccc(OC(F)F)cc2)c1)[C@@H]1CCCN1S(=O)(=O)c1cc2cc(F)ccc2o1 [Example 130, (2S)-N-[[2-[4-(difluoromethoxy)phenyl]-4-pyridyl]methyl]-1-(5-fluorobenzofuran-2-yl)sulfonyl-pyrrolidine-2-carboxamide]
32 | COc1ccc(-c2cc(CNC(=O)[C@@H]3CCCN3S(=O)(=O)c3cc4cc(F)ccc4o3)ccn2)cc1 [Example 131, (2S)-1-(5-fluorobenzofuran-2-yl)sulfonyl-N-[[2-(4-methoxyphenyl)-4-pyridyl]methyl]pyrrolidine-2-carboxamide]
7.6 | N#Cc1ccc(-c2cc(CNC(=O)[C@@H]3CCCN3S(=O)(=O)c3cc4cc(F)ccc4o3)ccn2)cc1 [Example 132, (2S)-N-[[2-(4-cyanophenyl)-4-pyridyl]methyl]-1-(5-fluorobenzofuran-2-yl)sulfonyl-pyrrolidine-2-carboxamide]
0.83 | O=C(NCc1ccnc(-c2ccc(C(F)(F)F)nc2)c1)[C@@H]1CCCN1S(=O)(=O)c1cc2cc(F)ccc2o1 [Example 133, (2S)-1-(5-fluorobenzofuran-2-yl)sulfonyl-N-[[2-[6-(trifluoromethyl)-3-pyridyl]-4-pyridyl]methyl]pyrrolidine-2-carboxamide]
42 | O=C(NCc1ccnc(-c2cnc(C3CC3)nc2)c1)[C@@H]1CCCN1S(=O)(=O)c1cc2cc(F)ccc2o1 [Example 134, (2S)-N-[[2-(2-cyclopropylpyrimidin-5-yl)-4-pyridyl]methyl]-1-(5-fluorobenzofuran-2-yl)sulfonyl-pyrrolidine-2-carboxamide]
30 | O=C(NCc1ccnc(-c2ccccc2O)c1)[C@@H]1CCCN1S(=O)(=O)c1cc2cc(F)ccc2o1 [Example 135, (2S)-1-(5-fluorobenzofuran-2-yl)sulfonyl-N-[[2-(2-hydroxyphenyl)-4-pyridyl]methyl]pyrrolidine-2-carboxamide]
13 | O=C(NCc1ccnc(-c2ccc(F)cc2O)c1)[C@@H]1CCCN1S(=O)(=O)c1cc2cc(F)ccc2o1 [Example 136, (2S)-1-(5-fluorobenzofuran-2-yl)sulfonyl-N-[[2-(4-fluoro-2-hydroxy-phenyl)-4-pyridyl]methyl]pyrrolidine-2-carboxamide]
29 | O=C(NCc1ccnc(-c2cc(F)c(F)cc2O)c1)[C@@H]1CCCN1S(=O)(=O)c1cc2cc(F)ccc2o1 [Example 137, (2S)-N-[[2-(4,5-difluoro-2-hydroxy-phenyl)-4-pyridyl]methyl]-1-(5-fluorobenzofuran-2-yl)sulfonyl-pyrrolidine-2-carboxamide]
0.97 | O=C(NCc1ccnc(-c2ccc(C(F)(F)F)cc2O)c1)[C@@H]1CCCN1S(=O)(=O)c1cc2cc(F)ccc2o1 [Example 138, (2S)-1-(5-fluorobenzofuran-2-yl)sulfonyl-N-[[2-[2-hydroxy-4-(trifluoromethyl)phenyl]-4-pyridyl]methyl]pyrrolidine-2-carboxamide]
3 | O=C(NCc1cncc(-c2ccc(C(F)(F)F)cc2)c1)[C@@H]1CCCN1S(=O)(=O)c1cc2cc(F)ccc2o1 [Example 139, (2S)-1-(5-fluorobenzofuran-2-yl)sulfonyl-N-[[5-[4-(trifluoromethyl)phenyl]-3-pyridyl]methyl]pyrrolidine-2-carboxamide]
2.2 | O=C(NCc1cncc(-c2ccc(C(F)(F)F)nc2)c1)[C@@H]1CCCN1S(=O)(=O)c1cc2cc(F)ccc2o1 [Example 140, (2S)-1-(5-fluorobenzofuran-2-yl)sulfonyl-N-[[5-[6-(trifluoromethyl)-3-pyridyl]-3-pyridyl]methyl]pyrrolidine-2-carboxamide]
3.3 | O=C(NCc1cncc(-c2ccc(C(F)(F)F)cn2)c1)[C@@H]1CCCN1S(=O)(=O)c1cc2cc(F)ccc2o1 [Example 141, (2S)-1-(5-fluorobenzofuran-2-yl)sulfonyl-N-[[5-[5-(trifluoromethyl)-2-pyridyl]-3-pyridyl]methyl]pyrrolidine-2-carboxamide]
24 | N#Cc1ccc(-c2cncc(CNC(=O)[C@@H]3CCCN3S(=O)(=O)c3cc4cc(F)ccc4o3)c2)cc1 [Example 142, (2S)-N-[[5-(4-cyanophenyl)-3-pyridyl]methyl]-1-(5-fluorobenzofuran-2-yl)sulfonyl-pyrrolidine-2-carboxamide]
260 | O=C(NCc1cccc(-c2ccccc2O)n1)[C@@H]1CCCN1S(=O)(=O)c1cc2cc(F)ccc2o1 [Example 143, (2S)-1-(5-fluorobenzofuran-2-yl)sulfonyl-N-[[6-(2-hydroxyphenyl)-2-pyridyl]methyl]pyrrolidine-2-carboxamide]
